The subject of series [1] is HUVEC. The following applies: in vitro; cited from earlier work.
The subject of the next series is CTX-I. The experiment in a line: Urinary CTX-I ELISA in rat PG-PS arthritis model. The settings on record: 1, 5 and 10 mg/kg p.o. qod. It counts as in vivo. The procedure: ELISAs for cartilage and bone biochemical turnover markers. The amount of COMP in serum was measured with a competitive enzyme immunoassay (MD Biosciences, Inc) according to the manufacturer's instructions. The detection limit of this ELISA was 0.2 U/L. Helical peptide (amino acids 620 to 633) from the α1 chain of bone-specific human CTX-I was measured either in cell culture supernatants of primary human OC precursors cultured as described above, or in urine with a competitive enzyme immunoassay (Quidel Corporation). The detection limit of this ELISA was 8 μg/L. All CTX-I measurements in urine were corrected for urinary creatinine excretion for each sample to account for potential differences in renal clearance rates among the different study groups. Urinary creatinine was measured with a colorimetric assay (Quidel Corporation).
To assess the activity of the MetAP-2 inhibitor on systemic bone resorption in vivo, the amount of systemic CTX-I in urine was measured and corrected for urinary creatinine excretion after conclusion of the study.
(An ELISA detects its analyte on a solid surface through an enzyme-linked reagent.)

A further series addresses T1, MetAP-2 (Rattus norvegicus, UniProt P38062).
T1 construct: wbc from animals of each study group were pooled and cell lysates were prepared as previously described; from tissue; host or cells: white blood cells (wbc) of female Lewis rats, pooled per study group and lysed
In words: MetAP-2 pharmacodynamic assay in wbc lysates. Format: in vivo. The following applies: po, PG-PS arthritis rats, read-out: MetAP-2 in wbc inhibited relative to vehicle-treated group. The procedure: MetAP-2 pharmacodynamic assay. The MetAP-2 assay measures the amount of uninhibited MetAP-2 in cells or tissues which has not been derivitized by prior treatment with the MetAP-2 inhibitor (Bernier (2004) Proc. Natl. Acad. Sci. USA 101: 10768-10773 and Bernier (2005) J. Cell. Biochem. 95: 1191-1203). Briefly, wbc from animals of each study group were pooled and cell lysates were prepared as previously described (Bernier (2004) Proc. Natl. Acad. Sci. USA 101: 10768-10773 and Bernier (2005) J. Cell. Biochem. 95: 1191-1203). 10 μg to 20 μg of wbc protein was incubated with a biotinylated analog of the MetAP-2 inhibitor which covalently binds to the catalytic site of MetAP-2. The biotinylated MetAP-2-inhibitor complex was captured on a plate with immobilized streptavidin (Pierce), and detected with the MetAP-2 antibody CM33 (0.5 μg/ml), followed by horseradish peroxidase-conjugated goat anti-rabbit IgG secondary antibody. The amount of uninhibited MetAP-2 was determined by measuring the absorption at 450 nm using a Labsystems Multiskan plate spectrophotometer. Human recombinant MetAP-2 (Mediomics), pre-bound to the biotinylated MetAP-2 inhibitor, was used to generate the standard curve. The detection limit of this assay was 0.47 ng MetAP-2 protein/mg wbc protein.
Since the MetAP-2 inhibitor had the ability to inhibit multiple cell types critical for pathogenesis of the bone associated disease, RA, in vitro, it was hypothesized that the observations from the in vitro studies (Example 1) would translate into protection from disease in animals in the PG-PS model of arthritis. The progression of disease in this model follows a biphasic mode, with an early acute, predominantly neutrophil-driven phase which persists to days 6-7, followed by a chronic, T cell dependent phase (evident around day 12), which is characterized by chronic inflammation and erosive synovitis (Palombella (1998) Proc. Natl. Acad. Sci. USA 95:15671-15676). Therapeutic dosing of animals administered the MetAP-2 inhibitor orally (p.o.) at 1, 5 and 10 mg/kg, every other day (qod), or vehicle started at day 15 after the chronic destructive phase of the disease was established and terminated on day 31. […] The amount of uninhibited MetAP-2 in wbc of animals from all treatment groups was measured after conclusion of the study, using the MetAP-2 pharmacodynamic assay (Bernier (2004) Proc. Natl. Acad. Sci. USA 101: 10768-10773 and Bernier (2005) J. Cell. Biochem. 95: 1191-1203). […]

In another series the test system is PG-PS-induced arthritis. The experiment in a line: Rat model of PG-PS induced arthritis, paw swelling. Format: in vivo. The following applies: 1, 5 and 10 mg/kg p.o. qod, day 15 to 31, versus vehicle.
Series [2] concerns HUVEC. The following applies: 100 nM; cited from earlier work.

T1 sequence (P38062 whole entry): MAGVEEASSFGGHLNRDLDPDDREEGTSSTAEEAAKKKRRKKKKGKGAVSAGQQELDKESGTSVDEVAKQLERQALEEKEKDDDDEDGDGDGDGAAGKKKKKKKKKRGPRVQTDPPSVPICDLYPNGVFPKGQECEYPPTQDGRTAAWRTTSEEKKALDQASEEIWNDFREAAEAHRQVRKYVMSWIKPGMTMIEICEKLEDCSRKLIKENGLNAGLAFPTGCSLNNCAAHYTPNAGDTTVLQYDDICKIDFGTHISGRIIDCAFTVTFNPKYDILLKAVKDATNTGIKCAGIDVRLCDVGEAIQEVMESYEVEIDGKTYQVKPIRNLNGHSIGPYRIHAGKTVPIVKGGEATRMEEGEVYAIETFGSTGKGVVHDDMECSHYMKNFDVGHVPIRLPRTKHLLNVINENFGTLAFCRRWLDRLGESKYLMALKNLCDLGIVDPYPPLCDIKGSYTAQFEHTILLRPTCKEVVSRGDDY
Description for PG-PS-induced arthritis: Rat model of PG-PS induced arthritis. Female Lewis rats (109-130 g) were received from Charles River Laboratories. Food and water were available ad libitum. PG-PS (25 mg/kg) was injected i.p. on day 1 and responding animals were randomized into treatment groups on day 14. Vehicle (11% HPCD in PBS), dex and the MetAP-2 inhibitor (1, 5, and 10 mg/kg) were administered p.o., qod. Paw swelling was monitored using a plethysmometer (Stoelting Co., Woodale, Ill.) according to instrument specifications. The volumes of the two hind paws were measured and averaged on day 1, 4, 6, 8, 10, 13, 15, 17, 20, 22, 23, 27, 29 and 31. Ten animals were assigned to each group except the vehicle group and animals which received no PG-PS, but 10 mg/kg MetAP-2 inhibitor (n=4).

Turning to `CO[C@@H]1[C@H](OC(=O)N[C@@H](C(N)=O)C(C)C)CC[C@]2(CO2)[C@H]1[C@@]1(C)O[C@@H]1CC=C(C)C` [MetAP-2 inhibitor, (1-Carbamoyl-2-methyl-propyl)-carbamic acid-(3R,4S,5S,6R)-5-methoxy-4-[(2R,3R)-2-methyl-3-(3-methyl-but-2-enyl)-oxiranyl]-1-oxa-spiro[2,5]oct-6-yl ester], the “inhibition of proliferation of HUVEC” value with HUVEC [1] was “potently inhibit”. The “systemic urinary CTX-I levels corrected for creatinine, versus vehicle” value in the series with CTX-I is given as “significantly decreased”. On MetAP-2 (1 mg/kg p.o. qod), the inhibition at 1 mg/kg was at least 60%. In addition, on MetAP-2 (5 mg/kg p.o. qod), the inhibition at 5 mg/kg was at least 95%. Also, on MetAP-2 (10 mg/kg p.o. qod), the inhibition at 10 mg/kg was at least 95%. In the series with PG-PS-induced arthritis, the “joint swelling and inflammation, paw swelling of the hind limbs” value is reported as “significant amelioration”. For the same molecule, the “induction of apoptosis in HUVEC” value in the series with HUVEC [2] is “did not induce apoptosis”.
